One experiment has as its system soleus muscle. Put plainly: rat muscle function test: muscle weight (atrophy of immobilized extremity). It counts as in vivo, male Wistar rats. Conditions: oral, 1x per day for 3 weeks, as a rule 25 mg/kg, difference ≤25% classified as an effect. Summed up: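 Male Wistar rats (~300 g) had the right hind limb immobilized in a padded plastic cast for 3 weeks with daily oral dosing by stomach tube, as a rule 25 mg/kg in carboxymethylcellulose. Soleus weight of the immobilized limb was compared with the contralateral limb; a difference of ≤25% was classed as an effect.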

Experiment [1] relates to muscle group (gastrocnemius, plantaris and soleus) of the immobilized right rear extremity. As to the kind of experiment: rat muscle function test: direct electrical stimulation of muscle group after 3 weeks' immobilization. It counts as in vivo, male Wistar rats. The note with it: isotonic stimulation; oral, 1x per day for 3 weeks, as a rule 25 mg/kg; control approx. -25%; ≤-12% classified as active. Summed up:
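Male Wistar rats (about 300 g) had the right hindlimb immobilized in a plastic cast for 3 weeks while dosed orally once daily, usually 25 mg/kg in carboxymethylcellulose. Under pentobarbital, the gastrocnemius/plantaris/soleus group was stimulated directly: isometric force (0.5N preload, 15 min) as area-under-curve, and isotonic work (body-weight preload, 15 min) in J; results as Δ% immobilized vs contralateral muscle.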

Consider `CCOP(=O)(CCCn1cnc2c1c(=O)[nH]c(=O)n2C)OCC` [Example 2, Diethyl [4-(3-methylxanthin-7-yl)propyl]phosphonate], for which the “Muscle weight (right/left difference)” value in the experiment with soleus muscle was -22 Δ %. Further, the “Work (performed work, right/left difference)” value in experiment [1] is listed as “+5 Δ %”.

The values above are taken from patent publication US5728686A, “Alkylxanthine phosphonates and alkylxanthine phosphine oxides and their use as pharmaceuticals” (Hoechst Aktiengesellschaft, priority 1996, dated 1998).
